Consider 19 molecules from PubChem BioAssay AID328 (DTP/NCI, 2004).

“And” between values parts separate entries of the source, which are not always exact repeats. Equal values may be shown once. Toxic doses and inconclusive results are not listed.

The test system of this test is BDF1 mice, P388 leukemia ip, median survival T/C. Nature of the test: NCI In Vivo Anticancer Drug Screen. Data for tumor model P388 Leukemia (intraperitoneal) in B6D2F1 (BDF1) mice. Conditions: endpoint: median survival time, higher = longer survival. In outline:
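Steps: implant the tumour, treat one group with compound and another with vehicle, record survival, then divide treated by control.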

Where [1] appears, read: dose: 100.0 mg/kg/injection, schedule: Q04DX003 (ip), vehicle: saline with Tween-80.
[2] abbreviates: dose: 200.0 mg/kg/injection, schedule: Q04DX003 (ip), vehicle: saline with Tween-80.
[3] abbreviates: dose: 400.0 mg/kg/injection, schedule: Q04DX003 (ip), vehicle: saline with Tween-80.
[4] abbreviates: dose: 12.5 mg/kg/injection, schedule: Q01DX009 (ip), vehicle: saline with Tween-80.
Setting [5] is: dose: 25.0 mg/kg/injection, schedule: Q01DX009 (ip), vehicle: saline with Tween-80.
Setting [6] is: dose: 50.0 mg/kg/injection, schedule: Q01DX009 (ip), vehicle: saline with Tween-80.
The mark [7] stands for this setting: dose: 100.0 mg/kg/injection, schedule: Q04DX003 (ip), vehicle: Klucel (hydroxypropylcellulose) (HPC).
The mark [8] stands for this setting: dose: 200.0 mg/kg/injection, schedule: Q04DX003 (ip), vehicle: Klucel (hydroxypropylcellulose) (HPC).
Setting [9] is: dose: 400.0 mg/kg/injection, schedule: Q04DX003 (ip), vehicle: Klucel (hydroxypropylcellulose) (HPC).
The mark [10] stands for this setting: dose: 12.5 mg/kg/injection, schedule: Q01DX009 (ip), vehicle: saline.
The mark [11] stands for this setting: dose: 25.0 mg/kg/injection, schedule: Q01DX009 (ip), vehicle: saline.
Setting [12] is: dose: 50.0 mg/kg/injection, schedule: Q01DX009 (ip), vehicle: saline.
Setting [13] is: dose: 100.0 mg/kg/injection, schedule: Q01DX009 (ip), vehicle: Klucel (hydroxypropylcellulose) (HPC).
[14] abbreviates: dose: 200.0 mg/kg/injection, schedule: Q01DX009 (ip), vehicle: Klucel (hydroxypropylcellulose) (HPC).

Turning to `Cc1ccc([I+]c2ccc(C)cc2C)c(C)c1`, the T/C is, setting by setting: (dose: 0.19 mg/kg/injection, schedule: Q01DX009 (ip), vehicle: Klucel (hydroxypropylcellulose) (HPC)) 90 % of control; (dose: 0.39 mg/kg/injection, schedule: Q01DX009 (ip), vehicle: Klucel (hydroxypropylcellulose) (HPC)) 90 % of control; (dose: 0.78 mg/kg/injection, schedule: Q01DX009 (ip), vehicle: Klucel (hydroxypropylcellulose) (HPC)) 100 % of control; (dose: 1.17 mg/kg/injection, schedule: Q04DX003 (ip), vehicle: Klucel (hydroxypropylcellulose) (HPC)) 104 % of control; (dose: 1.5 mg/kg/injection, schedule: Q01DX009 (ip), vehicle: Klucel (hydroxypropylcellulose) (HPC)) 90 % of control; (dose: 1.56 mg/kg/injection, schedule: Q01DX009 (ip), vehicle: Klucel (hydroxypropylcellulose) (HPC)) 87 % of control. The T/C by setting is: (dose: 2.34 mg/kg/injection, schedule: Q04DX003 (ip), vehicle: Klucel (hydroxypropylcellulose) (HPC)) 108 % of control; (dose: 3.0 mg/kg/injection, schedule: Q01DX009 (ip), vehicle: Klucel (hydroxypropylcellulose) (HPC)) 100 % of control and 103 % of control; (dose: 4.68 mg/kg/injection, schedule: Q04DX003 (ip), vehicle: Klucel (hydroxypropylcellulose) (HPC)) 113 % of control; (dose: 6.0 mg/kg/injection, schedule: Q01DX009 (ip), vehicle: Klucel (hydroxypropylcellulose) (HPC)) 103 % of control; (dose: 6.6 mg/kg/injection, schedule: Q04DX003 (ip), vehicle: Klucel (hydroxypropylcellulose) (HPC)) 100 % of control; (dose: 10.0 mg/kg/injection, schedule: Q04DX003 (ip), vehicle: Klucel (hydroxypropylcellulose) (HPC)) 113 % of control. For the same molecule, the T/C was 100 % of control (dose: 12.0 mg/kg/injection, schedule: Q04DX003 (ip), vehicle: Klucel (hydroxypropylcellulose) (HPC)); 103 % of control (dose: 12.5 mg/kg/injection, schedule: Q04DX003 (ip), vehicle: Klucel (hydroxypropylcellulose) (HPC)); 100 % of control (dose: 25.0 mg/kg/injection, schedule: Q04DX003 (ip), vehicle: Klucel (hydroxypropylcellulose) (HPC)); 91 % of control (dose: 50.0 mg/kg/injection, schedule: Q04DX003 (ip), vehicle: Klucel (hydroxypropylcellulose) (HPC)).
As to `CCC1(C)N=C(C)C(C)S1` (stereo not given), the T/C was 100 % of control under setting [1], 100 % of control under setting [2] and 109 % of control under setting [3].
Regarding `NC(=O)Oc1cc(OC(N)=O)cc(N(CCCl)CCCl)c1`, the T/C by setting is: under setting [4], 158 % of control; under setting [5], 181 % of control; (dose: 25.0 mg/kg/injection, schedule: Q04DX003 (ip), vehicle: other) 179 % of control; under setting [6], 168 % of control; (dose: 50.0 mg/kg/injection, schedule: Q04DX003 (ip), vehicle: other) 186 % of control; (dose: 100.0 mg/kg/injection, schedule: Q04DX003 (ip), vehicle: other) 216 % of control.
Consider `O=P(N1CC1)(N1CC1)N1CC2CCC(CC2)C1`, for which the T/C by setting is: (dose: 25.0 mg/kg/injection, schedule: Q04DX003 (ip), vehicle: saline) 163 % of control; (dose: 37.5 mg/kg/injection, schedule: Q04DX003 (ip), vehicle: saline) 236 % of control.
For `CC1(C)N=C(N)N=C(N)N1c1cccc(CCCCc2ccc(S(=O)(=O)F)cc2)c1`, the T/C (dose: 2.75 mg/kg/injection, schedule: Q01DX009 (ip), vehicle: saline) was 120 % of control; the T/C (dose: 8.25 mg/kg/injection, schedule: Q01DX009 (ip), vehicle: saline) is 150 % of control; the T/C (dose: 18.75 mg/kg/injection, schedule: Q01DX009 (ip), vehicle: saline) is 150 % of control.
Regarding `CC1(C)O[C@@H]2C[C@H]3[C@@H]4CCC5=CC(=O)C=C[C@]5(C)[C@@]4(F)[C@@H](O)C[C@]3(C)[C@]2(C(=O)CO)O1`, the T/C under setting [6] was 100 % of control, the T/C under setting [1] was 108 % of control and the T/C under setting [2] was 100 % of control.
`S=c1[nH]nc2n1NC(c1ccccc1)=NN2`: the T/C by setting is: under setting [1], 91 % of control; under setting [2], 87 % of control; under setting [3], 95 % of control.
Turning to `Cc1cc(-c2ccccc2)[n+](C)n1C`, the T/C is 98 % of control under setting [4] and 118 % of control under setting [5].
Take `COC1=C(c2ccccc2)C(=O)CCc2ccccc21`: the T/C by setting is: under setting [7], 100 % of control; under setting [8], 100 % of control; under setting [9], 100 % of control.
As for `c1ccc(CCN2COc3c(ccc4cccnc34)C2)cc1`, under setting [1], the T/C was 95 % of control.
Take `CCCCCCCCCCCC[N+]1([O-])CCCC1`: the T/C was 100 % of control under setting [10], 93 % of control under setting [11] and 87 % of control under setting [12].
Take `NC(N)=NCCCC(=O)O`: the T/C reads like this: under setting [12], 104 % of control; (dose: 100.0 mg/kg/injection, schedule: Q01DX009 (ip), vehicle: saline) 94 % of control and 103 % of control; (dose: 100.0 mg/kg/injection, schedule: Q04DX003 (ip), vehicle: saline) 95 % of control; (dose: 200.0 mg/kg/injection, schedule: Q01DX009 (ip), vehicle: saline) 101 % of control and 103 % of control; (dose: 200.0 mg/kg/injection, schedule: Q04DX003 (ip), vehicle: saline) 100 % of control; (dose: 400.0 mg/kg/injection, schedule: Q01DX009 (ip), vehicle: saline) 92 % of control and 106 % of control. Moreover, the T/C (dose: 400.0 mg/kg/injection, schedule: Q04DX003 (ip), vehicle: saline) was 104 % of control.
With `CC(CCl)N(CCCl)Cc1cccc(Nc2ncnc3nc[nH]c23)c1` (stereo not given), the T/C by setting is: (dose: 0.8 mg/kg/injection, schedule: Q01DX009 (ip), vehicle: saline) 152 % of control; (dose: 1.5 mg/kg/injection, schedule: Q01DX009 (ip), vehicle: saline) 154 % of control; (dose: 2.0 mg/kg/injection, schedule: Q01DX009 (ip), vehicle: saline) 164 % of control; (dose: 2.5 mg/kg/injection, schedule: Q01DX009 (ip), vehicle: saline) 185 % of control; (dose: 3.0 mg/kg/injection, schedule: Q01DX009 (ip), vehicle: saline) 160 % of control; (dose: 5.0 mg/kg/injection, schedule: Q01DX009 (ip), vehicle: saline) 175 % of control. For the same molecule, the T/C is 180 % of control (dose: 10.0 mg/kg/injection, schedule: Q01DX009 (ip), vehicle: saline) and 86 % of control (dose: 10.0 mg/kg/injection, schedule: Q04DX003 (ip), vehicle: saline).
Regarding `COC(=O)/C=C\SC(=S)C1CCCC1=O` (stereo not given), the T/C was 119 % of control under setting [6]; 110 % of control (dose: 100.0 mg/kg/injection, schedule: Q01DX009 (ip), vehicle: saline with Tween-80); 112 % of control (dose: 200.0 mg/kg/injection, schedule: Q01DX009 (ip), vehicle: saline with Tween-80).
In the case of `CC(=O)OCCC/C(=C\c1ccc2ccccc2c1)[N+](=O)[O-]`, the T/C under setting [13] was 118 % of control and the T/C under setting [14] was 122 % of control.
Regarding `C[N+](C)(C)CCCSC1=NCCN1`, the T/C (dose: 6.25 mg/kg/injection, schedule: Q01DX009 (ip), vehicle: saline) was 106 % of control; the T/C under setting [10] was 107 % of control; the T/C under setting [11] is 103 % of control.
For `NC=NC(CCC(=O)O)C(=O)O` (stereo not given), the T/C reads like this: (dose: 12.5 mg/kg/injection, schedule: Q01DX005 (ip), vehicle: saline) 90 % of control; (dose: 25.0 mg/kg/injection, schedule: Q01DX005 (ip), vehicle: saline) 96 % of control; (dose: 50.0 mg/kg/injection, schedule: Q01DX005 (ip), vehicle: saline) 91 % of control.
In the case of `COC(=O)c1ccc(Cn2ccc(=O)n(Cc3ccc(C(=O)OC)cc3)c2=O)cc1`, the T/C under setting [1] was 100 % of control, the T/C under setting [2] was 100 % of control and the T/C under setting [3] was 100 % of control.
`COc1cc2c(cc1OC)-c1ncnc(-c3ccccc3)c1C2`: the T/C runs as follows: under setting [13], 100 % of control; under setting [7], 108 % of control; under setting [14], 100 % of control; under setting [8], 91 % of control; (dose: 400.0 mg/kg/injection, schedule: Q01DX009 (ip), vehicle: Klucel (hydroxypropylcellulose) (HPC)) 95 % of control; under setting [9], 95 % of control.
